Experimental data reported in PubChem BioAssay (NCI).
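Grown in 96-well plates, cells were treated for 48 hours with each compound at five concentrations. Insufficient inhibition: endpoint recorded as highest concentration tested. TGI marks complete inhibition of growth.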

Legend:
Experiment in all cases: DTP human tumour cell line panel, 48 h
786-0 renal = system: 786-0 renal
A498 renal = system: A498 renal
A549 NSCLC = system: A549 NSCLC
ACHN renal = system: ACHN renal
CCRF-CEM leukemia = system: CCRF-CEM leukemia
COLO 205 colon = system: COLO 205 colon
DLD-1 colon = system: DLD-1 colon
DMS 114 small cell lung = system: DMS 114 small cell lung
DMS 273 small cell lung = system: DMS 273 small cell lung
EKVX NSCLC = system: EKVX NSCLC
HCC-2998 colon = system: HCC-2998 colon
HCT-116 colon = system: HCT-116 colon
HCT-15 colon = system: HCT-15 colon
HL-60(TB) leukemia = system: HL-60(TB) leukemia
HOP-18 NSCLC = system: HOP-18 NSCLC
HOP-62 NSCLC = system: HOP-62 NSCLC
HOP-92 NSCLC = system: HOP-92 NSCLC
HT29 colon = system: HT29 colon
IGROV1 ovarian = system: IGROV1 ovarian
K-562 leukemia = system: K-562 leukemia
KM20L2 colon = system: KM20L2 colon
LXFL 529 NSCLC = system: LXFL 529 NSCLC
M14 melanoma = system: M14 melanoma
M19-MEL melanoma = system: M19-MEL melanoma
MALME-3M melanoma = system: MALME-3M melanoma
MOLT-4 leukemia = system: MOLT-4 leukemia
NCI-H226 lung = system: NCI-H226 lung
NCI-H23 lung = system: NCI-H23 lung
NCI-H522 lung = system: NCI-H522 lung
OVCAR-4 ovarian = system: OVCAR-4 ovarian
OVCAR-8 ovarian = system: OVCAR-8 ovarian
RPMI-8226 leukemia = system: RPMI-8226 leukemia
RXF 393 renal = system: RXF 393 renal
SF-268 CNS = system: SF-268 CNS
SF-295 CNS = system: SF-295 CNS
SF-539 CNS = system: SF-539 CNS
SK-MEL-28 melanoma = system: SK-MEL-28 melanoma
SK-MEL-5 melanoma = system: SK-MEL-5 melanoma
SK-OV-3 ovarian = system: SK-OV-3 ovarian
SN12C renal = system: SN12C renal
SNB-19 CNS = system: SNB-19 CNS
SNB-75 CNS = system: SNB-75 CNS
SNB-78 CNS = system: SNB-78 CNS
SR leukemia = system: SR leukemia
SW-620 colon = system: SW-620 colon
U251 CNS = system: U251 CNS
UACC-257 melanoma = system: UACC-257 melanoma
UACC-62 melanoma = system: UACC-62 melanoma
UO-31 renal = system: UO-31 renal
XF 498 CNS = system: XF 498 CNS
KM12 colon = system: KM12 colon
LOX IMVI melanoma = system: LOX IMVI melanoma
NCI-H460 lung = system: NCI-H460 lung
OVCAR-3 ovarian = system: OVCAR-3 ovarian
OVCAR-5 ovarian = system: OVCAR-5 ovarian
RXF-631 renal = system: RXF-631 renal
SK-MEL-2 melanoma = system: SK-MEL-2 melanoma
TK-10 renal = system: TK-10 renal

With `COc1ccc(/C(Cl)=C/c2ccc(Cl)c(Cl)c2)cc1` the TGI (786-0 renal) was > 100 µM, the TGI (A498 renal) was 72.8 µM and the TGI (A549 NSCLC) was 83.6 µM. The TGI (ACHN renal) was 91.6 µM, the TGI (CCRF-CEM leukemia) was 47.8 µM and the TGI (COLO 205 colon) was 54 µM. For the same compound, the TGI (DLD-1 colon) was > 100 µM, the TGI (DMS 114 small cell lung) was 43.8 µM and the TGI (DMS 273 small cell lung) was 67.5 µM. It also gave a TGI (EKVX NSCLC) of 61.8 µM, a TGI (HCC-2998 colon) of 43.2 µM and a TGI (HCT-116 colon) of 80.3 µM. It also gave a TGI (HCT-15 colon) of 97.3 µM, a TGI (HL-60(TB) leukemia) of 44.9 µM and a TGI (HOP-18 NSCLC) of 88.9 µM. The TGI (HOP-62 NSCLC) was 79 µM, the TGI (HOP-92 NSCLC) was 78.7 µM and the TGI (HT29 colon) was 47.5 µM. For the same compound, the TGI (IGROV1 ovarian) was > 100 µM, the TGI (K-562 leukemia) was > 100 µM and the TGI (KM20L2 colon) was 63.7 µM. The TGI (LXFL 529 NSCLC) was > 100 µM, the TGI (M14 melanoma) was > 100 µM and the TGI (M19-MEL melanoma) was > 100 µM. It also gave a TGI (MALME-3M melanoma) of 56.8 µM, a TGI (MOLT-4 leukemia) of 37 µM and a TGI (NCI-H226 lung) of 53.2 µM. For the same compound, the TGI (NCI-H23 lung) was 63 µM, the TGI (NCI-H522 lung) was 41.1 µM and the TGI (OVCAR-4 ovarian) was > 100 µM. For the same compound, the TGI (OVCAR-8 ovarian) was > 100 µM, the TGI (RPMI-8226 leukemia) was 53.9 µM and the TGI (RXF 393 renal) was 33.6 µM. For the same compound, the TGI (SF-268 CNS) was > 100 µM, the TGI (SF-295 CNS) was 74.9 µM and the TGI (SF-539 CNS) was > 100 µM. The TGI (SK-MEL-28 melanoma) was > 100 µM, the TGI (SK-MEL-5 melanoma) was 50.3 µM and the TGI (SK-OV-3 ovarian) was > 100 µM. For the same compound, the TGI (SN12C renal) was > 100 µM, the TGI (SNB-19 CNS) was > 100 µM and the TGI (SNB-75 CNS) was 99.7 µM. The TGI (SNB-78 CNS) was 72.1 µM, the TGI (SR leukemia) was 47.9 µM and the TGI (SW-620 colon) was > 100 µM. The TGI (U251 CNS) was 50.4 µM, the TGI (UACC-257 melanoma) was 66.2 µM and the TGI (UACC-62 melanoma) was > 100 µM. The TGI (UO-31 renal) was > 100 µM and the TGI (XF 498 CNS) was 44.3 µM.
`CO[C@@]12CC(=O)/C(=C(O)\C=C\c3ccccc3)C(=O)[C@]1(OC)Cc1ccccc1O2` was tested, and the TGI (786-0 renal) was 70.2 µM, the TGI (A498 renal) was 90.7 µM and the TGI (A549 NSCLC) was 88.8 µM. For the same compound, the TGI (ACHN renal) was 74.2 µM, the TGI (CCRF-CEM leukemia) was 84.6 µM and the TGI (COLO 205 colon) was > 100 µM. The TGI (DLD-1 colon) was > 100 µM, the TGI (DMS 114 small cell lung) was > 100 µM and the TGI (EKVX NSCLC) was > 100 µM. The TGI (HCC-2998 colon) was 47 µM, the TGI (HCT-116 colon) was > 100 µM and the TGI (HCT-15 colon) was 51.7 µM. The TGI (HOP-18 NSCLC) was > 100 µM, the TGI (HOP-62 NSCLC) was 51.7 µM and the TGI (HOP-92 NSCLC) was > 100 µM. For the same compound, the TGI (HT29 colon) was > 100 µM, the TGI (IGROV1 ovarian) was > 100 µM and the TGI (K-562 leukemia) was > 100 µM. The TGI (KM12 colon) was 46.6 µM, the TGI (KM20L2 colon) was 49.2 µM and the TGI (LOX IMVI melanoma) was > 100 µM. The TGI (LXFL 529 NSCLC) was > 100 µM, the TGI (M14 melanoma) was > 100 µM and the TGI (M19-MEL melanoma) was > 100 µM. The TGI (MALME-3M melanoma) was > 100 µM, the TGI (MOLT-4 leukemia) was 96 µM and the TGI (NCI-H226 lung) was 50.2 µM. The TGI (NCI-H23 lung) was 61.8 µM, the TGI (NCI-H460 lung) was 88.1 µM and the TGI (NCI-H522 lung) was 83.8 µM. For the same compound, the TGI (OVCAR-3 ovarian) was 55.9 µM, the TGI (OVCAR-4 ovarian) was > 100 µM and the TGI (OVCAR-5 ovarian) was 82.8 µM. The TGI (OVCAR-8 ovarian) was 77.3 µM, the TGI (RXF 393 renal) was 36.5 µM and the TGI (RXF-631 renal) was > 100 µM. The TGI (SF-268 CNS) was 91.1 µM, the TGI (SF-295 CNS) was > 100 µM and the TGI (SF-539 CNS) was 55.4 µM. The TGI (SK-MEL-2 melanoma) was > 100 µM, the TGI (SK-MEL-28 melanoma) was 59.8 µM and the TGI (SK-MEL-5 melanoma) was > 100 µM. The TGI (SK-OV-3 ovarian) was > 100 µM, the TGI (SN12C renal) was > 100 µM and the TGI (SNB-19 CNS) was > 100 µM. For the same compound, the TGI (SNB-75 CNS) was > 100 µM, the TGI (SNB-78 CNS) was > 100 µM and the TGI (SW-620 colon) was > 100 µM. For the same compound, the TGI (TK-10 renal) was 73.4 µM, the TGI (U251 CNS) was 59.1 µM and the TGI (UACC-257 melanoma) was > 100 µM. The TGI (UACC-62 melanoma) was 52.3 µM, the TGI (UO-31 renal) was > 100 µM and the TGI (XF 498 CNS) was > 100 µM.
